Values joined by “and” are separate entries in the source; they are usually repeats but may differ in a detail not shown here. Identical values can stand only once. Like-named read-outs stand apart in the source and are kept apart here.
Legend:
SK1 isolate of HIV-1 = conditions: for p24 VALUES, single samples: samples 1-3; for IC50 (inhibition of cell-cell transmission): linear regression
From the text: (§1) ME180 cells, a cervical epithelial cell line, were obtained from the American Type Culture Collection. These cells were thawed from liquid nitrogen and grown in RPMI 1640 medium supplemented with 10t fetal bovine serum, glutamine and antibiotics. The cells were adherent and were trypsinized (0.5% trypsin in HBSS) to remove them from the flask for passaging and use in assays. For use in the microtiter transmission inhibition assay, ME180 cells were trypsinized, washed and seeded in 96-well flat bottom microtiter plates (COSTAR) at a density of 5×10^3 cells per well. The cells were incubated at 37° C. for 24 hours prior to the tart of the assay. H9 cells chronically infected with he SK1 isolate of HIV-1 were treated with 200 μg/ml mitomycin C for 60 minutes at 37° C. After treatment the cells were washed three times with tissue culture medium. The chronically infected lymphocytes were added to each well at a density of 2×10^4 cells per well. The concentration of mitomycin C used in the treatment of the lymphocytes was chosen to allow lymphocyte survival for the period of time required to transmit virus to the uninfected ME180 cells, but to die prior to the time of assay so as not to contribute to the p24 signal used as the endpoint (see below). In the transmission assay the lytic peptides D4E1 and D2A21, with and without 150 μg/ml pig mucin, were added prior to the addition of chronically infected cells or were mixed with the chronically infected cells prior to their addition to the monolayer of ME180 cells. Mucin was included because it is an abundant constituent of the normal vaginal secretions of a human being, thus any chemotherapeutic agent targeting HIV should be active in its presence if it is to have clinical value. […] The lymphocytes and peptide were co-cultured with the ME180 cells for 6 hours and then removed by washing the ME180 monolayer four times with PBS. The plate was then incubated at 37° C. for six days. Medium was removed and changed every 48 hours during the incubation stage. No further peptide was added after the initial dose. At six days post-co-cultivation, the supernatant was removed from the wells and evaluated for the quantity of p24 antigen by ELISA. The ELISA was performed according to the manufacturer's recommendations. The amount of virus production in wells treated with various concentrations of the peptides was evaluated with appropriate cell and virus controls. Data are reported as a percent of virus control at each drug concentration. Linear regression analysis was used to calculate the […] and IC95 concentrations of the transmission inhibitor. […] TI represents the toxicity index, which is the ratio of the TC50/IC50, and is an indication of the relative concentrations window that exists between efficacy and toxicity.

ME180 cells = assay: toxicity (XTT) in transmission inhibition assay; conditions: for TOXICITY VALUES (XTT), single samples: samples 1-3; for TC50 (concentration at which 50% of cells are eliminated): interpolation from % CC
From the text: as §1

[1] = 0.32 μg/ml, with 150 μg/ml pig mucin
[2] = 1 μg/ml, with 150 μg/ml pig mucin
[3] = 3.2 μg/ml, with 150 μg/ml pig mucin
[4] = 10 μg/ml, with 150 μg/ml pig mucin
[5] = 32 μg/ml, with 150 μg/ml pig mucin
[6] = 100 μg/ml, with 150 μg/ml pig mucin

Dextran
% VC (p24, percent of virus control) (SK1 isolate of HIV-1; 0.32 μg/ml, no mucin): 93.4%
p24 VALUES, MEAN (SK1 isolate of HIV-1; 0.32 μg/ml, no mucin): 51.0 µg/mL
p24 VALUES, single samples (SK1 isolate of HIV-1; 0.32 μg/ml, no mucin): 52.2 µg/mL and 52.5 µg/mL and 48.2 µg/mL
% VC (p24, percent of virus control) (SK1 isolate of HIV-1; [1]): 90.6%
p24 VALUES, MEAN (SK1 isolate of HIV-1; [1]): 56.2 µg/mL
p24 VALUES, single samples (SK1 isolate of HIV-1; [1]): 56.2 µg/mL and 53.5 µg/mL and 58.9 µg/mL
% VC (p24, percent of virus control) (SK1 isolate of HIV-1; 1 μg/ml, no mucin): 100.2%
p24 VALUES, MEAN (SK1 isolate of HIV-1; 1 μg/ml, no mucin): 54.7 µg/mL
p24 VALUES, single samples (SK1 isolate of HIV-1; 1 μg/ml, no mucin): 53.5 µg/mL and 57.0 µg/mL
% VC (p24, percent of virus control) (SK1 isolate of HIV-1; [2]): 86.72%
p24 VALUES, MEAN (SK1 isolate of HIV-1; [2]): 53.1 µg/mL
p24 VALUES, single samples (SK1 isolate of HIV-1; [2]): 51.0 µg/mL and 57.5 µg/mL and 50.9 µg/mL
% VC (p24, percent of virus control) (SK1 isolate of HIV-1; 3.2 μg/ml, no mucin): 91.4%
p24 VALUES, MEAN (SK1 isolate of HIV-1; 3.2 μg/ml, no mucin): 49.9 µg/mL
p24 VALUES, single samples (SK1 isolate of HIV-1; 3.2 μg/ml, no mucin): 50.3 µg/mL and 47.2 µg/mL and 52.2 µg/mL
% VC (p24, percent of virus control) (SK1 isolate of HIV-1; [3]): 88.2%
p24 VALUES, MEAN (SK1 isolate of HIV-1; [3]): 54.7 µg/mL
p24 VALUES, single samples (SK1 isolate of HIV-1; [3]): 52.1 µg/mL and 54.7 µg/mL and 57.3 µg/mL
% VC (p24, percent of virus control) (SK1 isolate of HIV-1; 10 μg/ml, no mucin): 84.1%
p24 VALUES, MEAN (SK1 isolate of HIV-1; 10 μg/ml, no mucin): 45.9 µg/mL
p24 VALUES, single samples (SK1 isolate of HIV-1; 10 μg/ml, no mucin): 45.3 µg/mL and 45.7 µg/mL and 46.6 µg/mL
% VC (p24, percent of virus control) (SK1 isolate of HIV-1; [4]): 92.6%
p24 VALUES, MEAN (SK1 isolate of HIV-1; [4]): 57.5 µg/mL
p24 VALUES, single samples (SK1 isolate of HIV-1; [4]): 53.2 µg/mL and 58.1 µg/mL and 61.1 µg/mL
% VC (p24, percent of virus control) (SK1 isolate of HIV-1; 32 μg/ml, no mucin): 96.0%
p24 VALUES, MEAN (SK1 isolate of HIV-1; 32 μg/ml, no mucin): 52.4 µg/mL
p24 VALUES, single samples (SK1 isolate of HIV-1; 32 μg/ml, no mucin): 51.9 µg/mL and 53.2 µg/mL and 52.0 µg/mL
% VC (p24, percent of virus control) (SK1 isolate of HIV-1; [5]): 102.7%
p24 VALUES, MEAN (SK1 isolate of HIV-1; [5]): 63.7 µg/mL
p24 VALUES, single samples (SK1 isolate of HIV-1; [5]): 65.5 µg/mL and 60.5 µg/mL and 65.1 µg/mL
% VC (p24, percent of virus control) (SK1 isolate of HIV-1; 100 μg/ml, no mucin): 94.5%
p24 VALUES, MEAN (SK1 isolate of HIV-1; 100 μg/ml, no mucin): 51.6 µg/mL
p24 VALUES, single samples (SK1 isolate of HIV-1; 100 μg/ml, no mucin): 52.6 µg/mL and 52.0 µg/mL and 50.1 µg/mL
% VC (p24, percent of virus control) (SK1 isolate of HIV-1; [6]): 104.2%
p24 VALUES, MEAN (SK1 isolate of HIV-1; [6]): 64.6 µg/mL
p24 VALUES, single samples (SK1 isolate of HIV-1; [6]): 63.7 µg/mL and 59.6 µg/mL and 70.6 µg/mL
IC50 (inhibition of cell-cell transmission) (SK1 isolate of HIV-1; no mucin): IC50 = 100 μg/ml
IC50 (inhibition of cell-cell transmission) (SK1 isolate of HIV-1; with 150 μg/ml pig mucin): IC50 = 100 μg/ml
% CC (XTT, percent of cell control) (ME180 cells; 0.32 μg/ml, no mucin): 90.1%
TOXICITY VALUES (XTT), MEAN (ME180 cells; 0.32 μg/ml, no mucin): 0.458 O.D. @ 450/650 nm
TOXICITY VALUES (XTT), single samples (ME180 cells; 0.32 μg/ml, no mucin): 0.462 O.D. @ 450/650 nm and 0.463 O.D. @ 450/650 nm and 0.488 O.D. @ 450/650 nm
% CC (XTT, percent of cell control) (ME180 cells; [1]): 90.1%
TOXICITY VALUES (XTT), MEAN (ME180 cells; [1]): 0.458 O.D. @ 450/650 nm
TOXICITY VALUES (XTT), single samples (ME180 cells; [1]): 0.462 O.D. @ 450/650 nm and 0.463 O.D. @ 450/650 nm and 0.448 O.D. @ 450/650 nm
% CC (XTT, percent of cell control) (ME180 cells; 1 μg/ml, no mucin): 88.1%
TOXICITY VALUES (XTT), MEAN (ME180 cells; 1 μg/ml, no mucin): 0.447 O.D. @ 450/650 nm
TOXICITY VALUES (XTT), single samples (ME180 cells; 1 μg/ml, no mucin): 0.425 O.D. @ 450/650 nm and 0.457 O.D. @ 450/650 nm and 0.450 O.D. @ 450/650 nm
% CC (XTT, percent of cell control) (ME180 cells; [2]): 88.1%
TOXICITY VALUES (XTT), MEAN (ME180 cells; [2]): 0.447 O.D. @ 450/650 nm
TOXICITY VALUES (XTT), single samples (ME180 cells; [2]): 0.425 O.D. @ 450/650 nm and 0.467 O.D. @ 450/650 nm and 0.450 O.D. @ 450/650 nm
% CC (XTT, percent of cell control) (ME180 cells; 3.2 μg/ml, no mucin): 91.1%
TOXICITY VALUES (XTT), MEAN (ME180 cells; 3.2 μg/ml, no mucin): 0.463 O.D. @ 450/650 nm
TOXICITY VALUES (XTT), single samples (ME180 cells; 3.2 μg/ml, no mucin): 0.477 O.D. @ 450/650 nm and 0.453 O.D. @ 450/650 nm and 0.459 O.D. @ 450/650 nm
% CC (XTT, percent of cell control) (ME180 cells; [3]): 91.1%
TOXICITY VALUES (XTT), MEAN (ME180 cells; [3]): 0.463 O.D. @ 450/650 nm
TOXICITY VALUES (XTT), single samples (ME180 cells; [3]): 0.477 O.D. @ 450/650 nm and 0.453 O.D. @ 450/650 nm and 0.459 O.D. @ 450/650 nm
% CC (XTT, percent of cell control) (ME180 cells; 10 μg/ml, no mucin): 92.0%
TOXICITY VALUES (XTT), MEAN (ME180 cells; 10 μg/ml, no mucin): 0.467 O.D. @ 450/650 nm
TOXICITY VALUES (XTT), single samples (ME180 cells; 10 μg/ml, no mucin): 0.468 O.D. @ 450/650 nm and 0.467 O.D. @ 450/650 nm
% CC (XTT, percent of cell control) (ME180 cells; [4]): 92.0%
TOXICITY VALUES (XTT), MEAN (ME180 cells; [4]): 0.467 O.D. @ 450/650 nm
TOXICITY VALUES (XTT), single samples (ME180 cells; [4]): 0.468 O.D. @ 450/650 nm and 0.467 O.D. @ 450/650 nm
% CC (XTT, percent of cell control) (ME180 cells; 32 μg/ml, no mucin): 91.7%
TOXICITY VALUES (XTT), MEAN (ME180 cells; 32 μg/ml, no mucin): 0.466 O.D. @ 450/650 nm
TOXICITY VALUES (XTT), single samples (ME180 cells; 32 μg/ml, no mucin): 0.457 O.D. @ 450/650 nm and 0.438 O.D. @ 450/650 nm and 0.493 O.D. @ 450/650 nm
% CC (XTT, percent of cell control) (ME180 cells; [5]): 91.7%
TOXICITY VALUES (XTT), MEAN (ME180 cells; [5]): 0.466 O.D. @ 450/650 nm
TOXICITY VALUES (XTT), single samples (ME180 cells; [5]): 0.467 O.D. @ 450/650 nm and 0.438 O.D. @ 450/650 nm and 0.493 O.D. @ 450/650 nm
% CC (XTT, percent of cell control) (ME180 cells; 100 μg/ml, no mucin): 97.8%
TOXICITY VALUES (XTT), MEAN (ME180 cells; 100 μg/ml, no mucin): 0.497 O.D. @ 450/650 nm
TOXICITY VALUES (XTT), single samples (ME180 cells; 100 μg/ml, no mucin): 0.481 O.D. @ 450/650 nm and 0.491 O.D. @ 450/650 nm and 0.519 O.D. @ 450/650 nm
% CC (XTT, percent of cell control) (ME180 cells; [6]): 97.8%
TOXICITY VALUES (XTT), MEAN (ME180 cells; [6]): 0.497 O.D. @ 450/650 nm
TOXICITY VALUES (XTT), single samples (ME180 cells; [6]): 0.481 O.D. @ 450/650 nm and 0.491 O.D. @ 450/650 nm and 0.519 O.D. @ 450/650 nm
TC50 (concentration at which 50% of cells are eliminated) (ME180 cells; no mucin): TC50 = 100 μg/ml
TC50 (concentration at which 50% of cells are eliminated) (ME180 cells; with 150 μg/ml pig mucin): TC50 = 100 μg/ml

From patent US6514692B2, “Method for treatment of immunodeficiency virus infection” (priority 1996, dated 2003)
